Experimental data reported in PubChem BioAssay (NCI).
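Where inhibition never reached the appropriate level, the endpoint shown equals the highest concentration tested. Otherwise, values were interpolated linearly from a five-concentration, 48-hour dose response in 96-well plates. GI50: concentration for 50% inhibition of growth. TGI marks complete inhibition of growth.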

Assays:
Experiment in all cases: NCI anticancer screen, dose series, 48 h
[1] = tested on: 786-0 renal
[2] = tested on: COLO 205 colon
[3] = tested on: HL-60(TB) leukemia
[4] = tested on: LOX IMVI melanoma
[5] = tested on: MDA-MB-231 breast
[6] = tested on: OVCAR-3 ovarian
[7] = tested on: SK-OV-3 ovarian
[8] = tested on: SNB-19 CNS
[9] = tested on: SNB-75 CNS
[10] = tested on: CCRF-CEM leukemia

With `COc1cc2ccc(/C=C\[N+](=O)[O-])cc2cc1OC` the TGI [1] was 3.09 µM, the TGI [2] was 15.9 µM and the TGI [3] was 5.07 µM. The TGI [4] was 3.42 µM, the TGI [5] was 9.02 µM and the TGI [6] was 18.1 µM. The TGI [7] was 28.4 µM, the TGI [8] was 27.7 µM and the TGI [9] was 5.76 µM.

For `COC(=O)/C(C)=C(/CCC1(C)OCCO1)O[Si](C)(C)C`, the TGI [1] was greater than 100 µM, the TGI [10] was greater than 100 µM and the TGI [2] was greater than 100 µM. It also gave a TGI [3] greater than 100 µM, a TGI [4] greater than 100 µM and a TGI [6] greater than 100 µM. The TGI [7] was greater than 100 µM, the TGI [8] was greater than 100 µM and the TGI [9] was 71.7 µM.

`CCC[CH2][Sn]1([CH2]CCC)[O]C(=O)c2cccnc2[O]1` gave a GI50 [1] of 2.62 µM, a TGI [1] of 8.01 µM and a GI50 [10] of 0.731 µM. It also gave a TGI [10] of 3.08 µM, a GI50 [2] of 1.88 µM and a TGI [2] of 3.65 µM. It also gave a GI50 [3] of 1.34 µM, a TGI [3] of 3.99 µM and a GI50 [4] of 1.81 µM. For the same molecule, the TGI [4] was 3.51 µM, the GI50 [6] was 1.91 µM and the TGI [6] was 8.16 µM. The GI50 [7] was 10 µM, the TGI [7] was 22.1 µM and the GI50 [8] was 2.65 µM. The TGI [8] was 10.6 µM, the GI50 [9] was 2.09 µM and the TGI [9] was 6.78 µM.

For `CCc1cc(C(=O)OC)cn1C(=N)c1ccc(Cl)cc1`, the TGI [1] was greater than 100 µM, the TGI [10] was greater than 100 µM and the TGI [2] was greater than 100 µM. The TGI [3] was greater than 100 µM, the TGI [4] was greater than 100 µM and the TGI [6] was greater than 100 µM. For the same molecule, the TGI [7] was greater than 100 µM, the TGI [8] was greater than 100 µM and the TGI [9] was greater than 100 µM.

For `Cc1cc(=O)n(-c2ccccc2C)c(C)n1`, the TGI [1] was greater than 100 µM, the TGI [10] was greater than 100 µM and the TGI [2] was greater than 100 µM. It also gave a TGI [3] greater than 100 µM, a TGI [4] greater than 100 µM and a TGI [6] greater than 100 µM. It also gave a TGI [7] greater than 100 µM, a TGI [8] greater than 100 µM and a TGI [9] greater than 100 µM.

Work on `COc1cc([N+](=O)[O-])c(OC)cc1-c1nc2sc(Cl)cn2c1/C(N)=N/C(=N)N` yielded a GI50 [1] of 2.33 µM, a TGI [1] of 5.64 µM and a GI50 [2] of 2.71 µM. The TGI [2] was 6.67 µM, the GI50 [4] was 4.44 µM and the TGI [4] was greater than 100 µM. It also gave a GI50 [5] of 2.19 µM, a TGI [5] of 8.25 µM and a GI50 [6] of 1.72 µM. It also gave a TGI [6] of 3.45 µM, a GI50 [7] of 23.7 µM and a TGI [7] greater than 62.1 µM. For the same molecule, the GI50 [8] was 3.91 µM and the TGI [8] was greater than 100 µM.

`CC(C)(C)n1cc(-c2ccnc(NCCCNS(=O)(=O)c3ccc(C(F)(F)F)cc3)c2)c(-c2cccc(O)c2)n1` gave a GI50 [1] of 1.8 µM, a TGI [1] of 3.38 µM and a GI50 [2] of 1.95 µM. It also gave a TGI [2] of 3.78 µM, a GI50 [3] of 2.81 µM and a TGI [3] of 7.74 µM. For the same molecule, the GI50 [4] was 1.72 µM, the TGI [4] was 3.09 µM and the GI50 [5] was 2.13 µM. The TGI [5] was 3.98 µM, the GI50 [6] was 1.96 µM and the TGI [6] was 3.84 µM. The GI50 [7] was 2.69 µM, the TGI [7] was 6.75 µM and the GI50 [8] was 1.98 µM. It also gave a TGI [8] of 3.83 µM, a GI50 [9] of 1.94 µM and a TGI [9] of 6.04 µM.

Molecule `COc1ccc2cc(C(=O)/C=C/c3ccc(Cl)cc3Cl)ccc2c1` has a GI50 [1] of 8.13 µM, a TGI [1] of 24.3 µM and a GI50 [10] of 6.74 µM. It also gave a TGI [10] greater than 100 µM, a GI50 [2] of 20.3 µM and a TGI [2] of 55.7 µM. It also gave a GI50 [5] of 44.6 µM, a TGI [5] greater than 100 µM and a GI50 [6] of 16.8 µM. It also gave a TGI [6] of 43.9 µM, a GI50 [7] of 61.6 µM and a TGI [7] greater than 100 µM. The GI50 [8] was 25.7 µM and the TGI [8] was 71.5 µM.

`COc1cc2c(c(OC)c1OC)-c1ccc(SC)c(=O)cc1C(CO)C2` (centres undefined) showed a GI50 [1] of less than 0.01 µM, a TGI [1] greater than 100 µM and a GI50 [10] of less than 0.01 µM. It also gave a TGI [10] of 2.27 µM, a GI50 [2] of less than 0.01 µM and a GI50 [3] of less than 0.01 µM. For the same molecule, the TGI [3] was 0.0439 µM, the GI50 [4] was less than 0.01 µM and the TGI [4] was 19.8 µM. For the same molecule, the TGI [6] was 0.449 µM, the GI50 [7] was less than 0.01 µM and the TGI [7] was 31.8 µM. It also gave a GI50 [8] of less than 0.01 µM, a TGI [8] greater than 100 µM and a GI50 [9] of less than 0.01 µM.

Work on `Cc1ccc2nc(NC(=O)C(=O)C(C#N)c3nc4ccccc4s3)sc2c1` (centres undefined) yielded a TGI [1] greater than 100 µM, a TGI [2] of 38.4 µM and a TGI [4] greater than 100 µM. The TGI [6] was 56.3 µM, the TGI [7] was greater than 100 µM and the TGI [8] was 83.6 µM. For the same molecule, the TGI [9] was greater than 100 µM.

For `COc1cnc2c(c1)C(=O)c1c-2n(CCCn2ccnc2)c(=O)c2cc(F)ccc12`, the GI50 [1] was 0.0131 µM, the TGI [1] was 0.0563 µM and the GI50 [2] was 0.0228 µM. It also gave a TGI [2] of 0.297 µM, a GI50 [3] of 0.0363 µM and a TGI [3] of 0.311 µM. The GI50 [4] was less than 0.01 µM, the TGI [4] was 0.128 µM and the GI50 [5] was 0.35 µM. For the same molecule, the TGI [5] was 2.17 µM, the GI50 [6] was 0.0437 µM and the TGI [6] was 0.382 µM. It also gave a GI50 [7] of 0.0162 µM, a TGI [7] of 0.327 µM and a GI50 [8] of less than 0.01 µM. The TGI [8] was 11.4 µM, the GI50 [9] was 0.187 µM and the TGI [9] was 21.8 µM.

`CCS(CC)(CC)CC1CCCC2=CCC(P(=O)(c3ccccc3)c3ccccc3)CC21` (centres undefined) was tested, and the TGI [1] was 26.1 µM, the TGI [10] was 31 µM and the TGI [2] was 37.4 µM. The TGI [3] was 12.3 µM, the TGI [4] was 34.9 µM and the TGI [6] was 30.5 µM. It also gave a TGI [7] of 28.7 µM, a TGI [8] of 29 µM and a TGI [9] of 25.4 µM.

`C(#Cc1ccccc1C#Cc1cccs1)c1cccs1` showed a GI50 [1] of 24.7 µM, a TGI [1] greater than 100 µM and a GI50 [10] of 31.9 µM. The TGI [10] was greater than 100 µM, the GI50 [2] was 36.4 µM and the TGI [2] was greater than 100 µM. It also gave a GI50 [4] of 23.7 µM, a TGI [4] of 53.8 µM and a GI50 [5] of 23.4 µM. For the same molecule, the TGI [5] was 82.1 µM, the GI50 [6] was 57.1 µM and the TGI [6] was greater than 100 µM. The GI50 [7] was 33.9 µM, the TGI [7] was greater than 100 µM and the GI50 [8] was greater than 100 µM. It also gave a TGI [8] greater than 100 µM, a GI50 [9] greater than 100 µM and a TGI [9] greater than 100 µM.

With `Cc1ccc(S(=O)(=O)OC2CSS(=O)CC2OS(=O)(=O)c2ccc(C)cc2)cc1` (centres undefined) the TGI [1] was 30.5 µM, the TGI [2] was 24.1 µM and the TGI [3] was 28.3 µM. For the same molecule, the TGI [4] was 26.1 µM, the TGI [6] was 31.8 µM and the TGI [7] was 38.5 µM. For the same molecule, the TGI [8] was 32 µM and the TGI [9] was 36.2 µM.

Work on `OC(c1ccccc1)(c1ccccc1)c1ccncc1` yielded a TGI [1] greater than 100 µM, a TGI [10] greater than 100 µM and a TGI [2] greater than 100 µM. The TGI [3] was greater than 100 µM, the TGI [4] was greater than 100 µM and the TGI [6] was greater than 100 µM. The TGI [7] was greater than 100 µM, the TGI [8] was greater than 100 µM and the TGI [9] was greater than 100 µM.

For `O=C(O)C(SC(=S)c1ccc(C(=S)SC(C(=O)O)c2ccccc2)cc1)c1ccccc1` (centres undefined), the TGI [1] was greater than 100 µM, the TGI [10] was greater than 100 µM and the TGI [3] was greater than 100 µM. The TGI [4] was greater than 100 µM, the TGI [6] was greater than 100 µM and the TGI [7] was greater than 100 µM. The TGI [8] was greater than 100 µM and the TGI [9] was greater than 100 µM.

Molecule `Clc1ccc(C2SCc3nc4ccccc4n32)c(Cl)c1` (centres undefined) has a TGI [1] of 31.9 µM, a TGI [10] of 40.8 µM and a TGI [2] of 31.5 µM. The TGI [3] was 28.3 µM, the TGI [4] was 29.4 µM and the TGI [6] was 27.3 µM. The TGI [7] was 42.1 µM, the TGI [8] was 33 µM and the TGI [9] was 34.8 µM.

Work on `C[C@H]1[C@H](C)CC[C@]2(CO)CC[C@]3(C)C(=CC[C@@H]4[C@@]5(C)CCCNC(C)(C)[C@@H]5CC[C@]43C)[C@H]12` yielded a GI50 [1] of 1.6 µM, a TGI [1] of 3.06 µM and a GI50 [10] of 1.74 µM. The TGI [10] was 3.93 µM, the GI50 [2] was 1.74 µM and the TGI [2] was 3.46 µM. For the same molecule, the GI50 [4] was 1.59 µM, the TGI [4] was 3.05 µM and the GI50 [5] was 1.88 µM. The TGI [5] was 3.48 µM, the GI50 [6] was 1.83 µM and the TGI [6] was 3.42 µM. It also gave a GI50 [7] of 2.54 µM, a TGI [7] of 6.97 µM and a GI50 [8] of 1.86 µM. The TGI [8] was 3.43 µM, the GI50 [9] was 1.49 µM and the TGI [9] was 2.9 µM.
